Reference: ChEMBL document CHEMBL1201861, “Genomics of Drug Sensitity in Cancer screening data, Wellcome Trust Sanger Institute”

What was measured:
Test in all cases: cells
SW 962 = type: functional, cell-based, Homo sapiens; conditions: Homo sapiens, SW 962;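 note: growth inhibition of human SW962 cells, read out by a cell viability assay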
Description: SANGER: Inhibition of human SW962 cell growth in a cell viability assay.

MV4-11 = type: functional, cell-based, Homo sapiens, MV-4-11; conditions: Homo sapiens, MV4-11;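 note: cell viability readout measuring growth inhibition of human MV-4-11 cells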
Description: SANGER: Inhibition of human MV-4-11 cell growth in a cell viability assay.

UACC-257 = type: functional, cell-based, Homo sapiens; conditions: Homo sapiens, UACC-257
Description: SANGER: Inhibition of human UACC-257 cell growth in a cell viability assay.

MSTO-211H = type: functional, cell-based, Homo sapiens; conditions: Homo sapiens, MSTO-211H
Description: SANGER: Inhibition of human MSTO-211H cell growth in a cell viability assay.

697 = type: functional, cell-based, Homo sapiens; conditions: Homo sapiens
Description: SANGER: Inhibition of human 697 cell growth in a cell viability assay.

SNU-5 = type: functional, cell-based, Homo sapiens; conditions: Homo sapiens, SNU-5;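 note: cell viability readout used to measure growth inhibition in human NCI-SNU-5 cells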
Description: SANGER: Inhibition of human NCI-SNU-5 cell growth in a cell viability assay.

ACN = type: functional, cell-based, Homo sapiens; conditions: Homo sapiens, ACN;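 note: growth inhibition of the human ACN cell line, read out via cell viability testing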
Description: SANGER: Inhibition of human ACN cell growth in a cell viability assay.

SK-NEP-1 = type: functional, cell-based, Homo sapiens; conditions: Homo sapiens, SK-NEP-1;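 note: growth inhibition of human SK-NEP-1 cells, read out by a cell viability assay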
Description: SANGER: Inhibition of human SK-NEP-1 cell growth in a cell viability assay.

NCI-H1395 = type: functional, cell-based, Homo sapiens; conditions: Homo sapiens, NCI-H1395;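 note: cell viability assay read-out quantifying reduced proliferation of human NCI-H1395 cells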
Description: SANGER: Inhibition of human NCI-H1395 cell growth in a cell viability assay.

HDLM-2 = type: functional, cell-based, Homo sapiens; conditions: Homo sapiens, HDLM-2;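 note: cell viability assay measuring suppression of HDLM-2 proliferation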
Description: SANGER: Inhibition of human HDLM-2 cell growth in a cell viability assay.

LB996-RCC = type: functional, cell-based, Homo sapiens; conditions: Homo sapiens, LB996-RCC
Description: SANGER: Inhibition of human LB996-RCC cell growth in a cell viability assay.

VA-ES-BJ = type: functional, cell-based, Homo sapiens; conditions: Homo sapiens, VA-ES-BJ;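 note: growth inhibition of the VA-ES-BJ cell line, read out by a cell viability assay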
Description: SANGER: Inhibition of human VA-ES-BJ cell growth in a cell viability assay.

NCI-H1155 = type: functional, cell-based, Homo sapiens; conditions: Homo sapiens, NCI-H1155;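 note: cell growth inhibition measured by a viability assay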
Description: SANGER: Inhibition of human NCI-H1155 cell growth in a cell viability assay.

SW 954 = type: functional, cell-based, Homo sapiens; conditions: Homo sapiens, SW 954;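 note: growth inhibition of SW954 human cancer cells, read out as cell viability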
Description: SANGER: Inhibition of human SW954 cell growth in a cell viability assay.

ALL-PO = type: functional, cell-based, Homo sapiens; conditions: Homo sapiens, ALL-PO;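 note: growth inhibition of ALL-PO cells, read out by a cell viability assay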
Description: SANGER: Inhibition of human ALL-PO cell growth in a cell viability assay.

TE-1 = type: functional, cell-based, Homo sapiens; conditions: Homo sapiens, TE-1;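 note: growth inhibition of the human TE-1 cell line, read out with a cell viability assay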
Description: SANGER: Inhibition of human TE-1 cell growth in a cell viability assay.

JVM-2 = type: functional, cell-based, Homo sapiens; conditions: Homo sapiens, JVM-2;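 note: growth inhibition of JVM-2 cells determined by a cell viability assay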
Description: SANGER: Inhibition of human JVM-2 cell growth in a cell viability assay.

OCI-AML2 = type: functional, cell-based, Homo sapiens; conditions: Homo sapiens, OCI-AML2;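 note: growth inhibition of OCI-AML2 cells, read out with a cell viability assay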
Description: SANGER: Inhibition of human OCI-AML2 cell growth in a cell viability assay.

MEG-01 = type: functional, cell-based, Homo sapiens; conditions: Homo sapiens, MEG-01;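 note: growth inhibition of MEG-01 cells, read out by a cell viability assay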
Description: SANGER: Inhibition of human MEG-01 cell growth in a cell viability assay.

NKM-1 = type: functional, cell-based, Homo sapiens; conditions: Homo sapiens, NKM-1;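 note: growth inhibition of NKM-1 cells, read out with a cell viability assay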
Description: SANGER: Inhibition of human NKM-1 cell growth in a cell viability assay.

CAS-1 = type: functional, cell-based, Homo sapiens; conditions: Homo sapiens, CAS-1;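 note: growth inhibition of CAS-1 cells, measured with a cell viability assay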
Description: SANGER: Inhibition of human CAS-1 cell growth in a cell viability assay.

KS-1 = type: functional, cell-based, Homo sapiens; conditions: Homo sapiens, KS-1;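 note: growth inhibition of KS-1 cells, read out with a cell viability assay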
Description: SANGER: Inhibition of human KS-1 cell growth in a cell viability assay.

D-263MG = type: functional, cell-based, Homo sapiens; conditions: Homo sapiens, D-263MG
Description: SANGER: Inhibition of human D-263MG cell growth in a cell viability assay.

DU-4475 = type: functional, cell-based, Homo sapiens; conditions: Homo sapiens, DU-4475
Description: SANGER: Inhibition of human DU-4475 cell growth in a cell viability assay.

LB2241-RCC = type: functional, cell-based, Homo sapiens; conditions: Homo sapiens, LB2241-RCC;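 note: cell viability assay measuring how strongly the cultured human renal carcinoma line is prevented from growing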
Description: SANGER: Inhibition of human LB2241-RCC cell growth in a cell viability assay.

SH-4 = type: functional, cell-based, Homo sapiens; conditions: Homo sapiens, SH-4;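 note: growth inhibition of SH-4 cells, read out with a cell viability assay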
Description: SANGER: Inhibition of human SH-4 cell growth in a cell viability assay.

TE-8 = type: functional, cell-based, Homo sapiens; conditions: Homo sapiens, TE-8;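 note: growth inhibition of TE-8 cells, measured with a cell viability readout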
Description: SANGER: Inhibition of human TE-8 cell growth in a cell viability assay.

HuTu80 = type: functional, cell-based, Homo sapiens, HUTU-80; conditions: Homo sapiens, HuTu80;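 note: growth inhibition of HuTu80 human cells, determined with a cell viability readout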
Description: SANGER: Inhibition of human HUTU-80 cell growth in a cell viability assay.

BT-474 = type: functional, cell-based, Homo sapiens; conditions: Homo sapiens, BT-474
Description: SANGER: Inhibition of human BT-474 cell growth in a cell viability assay.

KARPAS-299 = type: functional, cell-based, Homo sapiens; conditions: Homo sapiens, KARPAS-299
Description: SANGER: Inhibition of human KARPAS-299 cell growth in a cell viability assay.

LB831-BLC = type: functional, cell-based, Homo sapiens; conditions: Homo sapiens, LB831-BLC;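 note: growth inhibition of LB831-BLC cells, read out with a cell viability assay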
Description: SANGER: Inhibition of human LB831-BLC cell growth in a cell viability assay.

CP66-MEL = type: functional, cell-based, Homo sapiens; conditions: Homo sapiens, CP66-MEL;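 note: growth inhibition of CP66-MEL cells determined in a cell viability assay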
Description: SANGER: Inhibition of human CP66-MEL cell growth in a cell viability assay.

COLO-684 = type: functional, cell-based, Homo sapiens; conditions: Homo sapiens, COLO-684
Description: SANGER: Inhibition of human COLO-684 cell growth in a cell viability assay.

TE-6 = type: functional, cell-based, Homo sapiens; conditions: Homo sapiens, TE-6;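 note: growth inhibition of TE-6 cells, read out with a cell viability assay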
Description: SANGER: Inhibition of human TE-6 cell growth in a cell viability assay.

NMC-G1 = type: functional, cell-based, Homo sapiens; conditions: Homo sapiens, NMC-G1;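 note: growth inhibition of the NMC-G1 cell line, measured with a cell viability read-out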
Description: SANGER: Inhibition of human NMC-G1 cell growth in a cell viability assay.

NCI-H1304 = type: functional, cell-based, Homo sapiens; conditions: Homo sapiens, NCI-H1304;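 note: growth inhibition of the cancer cell line, measured in a cell viability assay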
Description: SANGER: Inhibition of human NCI-H1304 cell growth in a cell viability assay.

no-11 = type: functional, cell-based, Homo sapiens; conditions: Homo sapiens;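 note: growth inhibition of human NO-11 cells, read out with a cell viability assay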
Description: SANGER: Inhibition of human no-11 cell growth in a cell viability assay.

GI-ME-N = type: functional, cell-based, Homo sapiens; conditions: Homo sapiens, GI-ME-N;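 note: growth inhibition of human GI-ME-N cells, read out with a cell viability assay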
Description: SANGER: Inhibition of human GI-ME-N cell growth in a cell viability assay.

TGBC24TKB = type: functional, cell-based, Homo sapiens; conditions: Homo sapiens, TGBC24TKB;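 note: growth inhibition of human TGBC24TKB cells, read out with a cell viability assay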
Description: SANGER: Inhibition of human TGBC24TKB cell growth in a cell viability assay.

MHH-PREB-1 = type: functional, cell-based, Homo sapiens; conditions: Homo sapiens, MHH-PREB-1;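 note: cell viability assay measuring inhibition of proliferation of human MHH-PREB-1 cells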
Description: SANGER: Inhibition of human MHH-PREB-1 cell growth in a cell viability assay.

NTERA-2-cl-D1 = type: functional, cell-based, Homo sapiens; conditions: Homo sapiens, NTERA-2-cl-D1;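 note: inhibition of cell growth, measured with a cell viability assay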
Description: SANGER: Inhibition of human NTERA-S-cl-D1 cell growth in a cell viability assay.

NOS-1 = type: functional, cell-based, Homo sapiens; conditions: Homo sapiens, NOS-1;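 note: growth inhibition of the human NOS-1 cell line, read out with a cell viability assay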
Description: SANGER: Inhibition of human NOS-1 cell growth in a cell viability assay.

MOLT-4 = type: functional, cell-based, Homo sapiens; conditions: Homo sapiens, MOLT-4;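 note: growth inhibition of MOLT-4 cells, determined with a cell viability readout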
Description: SANGER: Inhibition of human MOLT-4 cell growth in a cell viability assay.

MZ7-mel = type: functional, cell-based, Homo sapiens; conditions: Homo sapiens, MZ7-mel;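 note: growth inhibition of human MZ7-mel cells, measured by a cell viability assay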
Description: SANGER: Inhibition of human MZ7-mel cell growth in a cell viability assay.

SK-N-DZ = type: functional, cell-based, Homo sapiens; conditions: Homo sapiens, SK-N-DZ;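 note: growth inhibition of the cancer cell line, read out through a viability assay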
Description: SANGER: Inhibition of human SK-N-DZ cell growth in a cell viability assay.

EM-2 = type: functional, cell-based, Homo sapiens; conditions: Homo sapiens, EM-2;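 note: growth inhibition of EM-2 cells, read out with a cell viability assay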
Description: SANGER: Inhibition of human EM-2 cell growth in a cell viability assay.

RS4-11 = type: functional, cell-based, Homo sapiens; conditions: Homo sapiens, RS4-11;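 note: growth inhibition of RS4-11 cells, read out by a cell viability assay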
Description: SANGER: Inhibition of human RS4-11 cell growth in a cell viability assay.

Which results are given for CCN(CC)CCNC(=O)c1c(C)[nH]c(/C=C2\C(=O)Nc3ccc(F)cc32)c1C [SUNITINIB]?
IC50 (SW 962): > 8000 nM; IC50 (MV4-11): < 31.2 nM; IC50 (UACC-257): > 8000 nM; IC50 (MSTO-211H): > 8000 nM; IC50 697: 614 nM; IC50 (SNU-5): > 8000 nM; IC50 (ACN): > 8000 nM; IC50 (SK-NEP-1): 2600 nM; IC50 (NCI-H1395): > 8000 nM; IC50 (HDLM-2): 6320 nM; IC50 (LB996-RCC): 4120 nM; IC50 (VA-ES-BJ): > 8000 nM; IC50 (NCI-H1155): > 8000 nM; IC50 (SW 954): 6280 nM; IC50 (ALL-PO): 79.9 nM; IC50 (TE-1): > 8000 nM; IC50 (JVM-2): > 8000 nM; IC50 (OCI-AML2): 1370 nM; IC50 (MEG-01): 1840 nM; IC50 (NKM-1): 98.5 nM; IC50 (CAS-1): > 8000 nM; IC50 (KS-1): 1690 nM; IC50 (D-263MG): > 8000 nM; IC50 (DU-4475): 4370 nM; IC50 (LB2241-RCC): > 8000 nM; IC50 (SH-4): 5480 nM; IC50 (TE-8): 2370 nM; IC50 (HuTu80): > 8000 nM; IC50 (BT-474): > 8000 nM; IC50 (KARPAS-299): 2110 nM; IC50 (LB831-BLC): > 8000 nM; IC50 (CP66-MEL): > 8000 nM; IC50 (COLO-684): > 8000 nM; IC50 (TE-6): > 8000 nM; IC50 (NMC-G1): > 8000 nM; IC50 (NCI-H1304): > 8000 nM; IC50 (no-11): 7780 nM; IC50 (GI-ME-N): > 8000 nM; IC50 (TGBC24TKB): > 8000 nM; IC50 (MHH-PREB-1): 5320 nM; IC50 (NTERA-2-cl-D1): > 8000 nM; IC50 (NOS-1): 15.3 nM; IC50 (MOLT-4): 3400 nM; IC50 (MZ7-mel): > 8000 nM; IC50 (SK-N-DZ): 4670 nM; IC50 (EM-2): > 8000 nM

What does the source list for Cc1ccc(-c2c(C(=O)CCl)n(CCCO)c3ncnc(N)c23)cc1?
IC50 (SW 962): 3660 nM; IC50 (MV4-11): > 4000 nM; IC50 (UACC-257): > 4000 nM; IC50 (MSTO-211H): > 4000 nM; IC50 697: 293 nM; IC50 (SNU-5): > 4000 nM; IC50 (ACN): > 4000 nM; IC50 (SK-NEP-1): > 4000 nM; IC50 (NCI-H1395): > 4000 nM; IC50 (HDLM-2): > 4000 nM; IC50 (LB996-RCC): > 4000 nM; IC50 (VA-ES-BJ): > 4000 nM; IC50 (NCI-H1155): > 4000 nM; IC50 (SW 954): > 4000 nM; IC50 (ALL-PO): > 4000 nM; IC50 (TE-1): > 4000 nM; IC50 (JVM-2): > 4000 nM; IC50 (OCI-AML2): > 4000 nM; IC50 (MEG-01): > 4000 nM; IC50 (NKM-1): > 4000 nM; IC50 (CAS-1): > 4000 nM; IC50 (KS-1): 1050 nM; IC50 (D-263MG): > 4000 nM; IC50 (DU-4475): > 4000 nM; IC50 (LB2241-RCC): 699 nM; IC50 (SH-4): > 4000 nM; IC50 (TE-8): 1970 nM; IC50 (RS4-11): > 4000 nM; IC50 (HuTu80): > 4000 nM; IC50 (BT-474): > 4000 nM; IC50 (KARPAS-299): > 4000 nM; IC50 (LB831-BLC): > 4000 nM; IC50 (CP66-MEL): > 4000 nM; IC50 (COLO-684): > 4000 nM; IC50 (TE-6): > 4000 nM; IC50 (NMC-G1): > 4000 nM; IC50 (NCI-H1304): > 4000 nM; IC50 (no-11): > 4000 nM; IC50 (GI-ME-N): 2520 nM; IC50 (TGBC24TKB): > 4000 nM; IC50 (MHH-PREB-1): 3940 nM; IC50 (NTERA-2-cl-D1): > 4000 nM; IC50 (NOS-1): > 4000 nM; IC50 (MOLT-4): > 4000 nM; IC50 (MZ7-mel): > 4000 nM; IC50 (SK-N-DZ): > 4000 nM; IC50 (EM-2): > 4000 nM

OCCCNc1cc(-c2ccnc(Nc3cccc(Cl)c3)n2)ccn1 was tested. Which IC50 (SW 962) did it give?
The IC50 was 45.1 nM.

What about the IC50 (MV4-11) of the same molecule?
The IC50 was 43.1 nM.

And the IC50 (UACC-257)?
Its IC50 is over 256 nM.

And the IC50 (MSTO-211H)?
The IC50 was over 256 nM.

What about the IC50 697 of the same molecule?
The IC50 was 19.7 nM.

And the IC50 (SNU-5)?
The IC50 was over 256 nM.

And the IC50 (ACN)?
The IC50 was 165 nM.

What about the IC50 (SK-NEP-1) of the same molecule?
Its IC50 is 80.9 nM.

What about the IC50 (NCI-H1395) of the same molecule?
Its IC50 is over 256 nM.

And the IC50 (HDLM-2)?
The IC50 was over 256 nM.

And the IC50 (LB996-RCC)?
The IC50 was 32.5 nM.

And the IC50 (VA-ES-BJ)?
The IC50 was 41.6 nM.

And the IC50 (NCI-H1155)?
The IC50 was over 256 nM.

And the IC50 (SW 954)?
The IC50 was 170 nM.

And the IC50 (ALL-PO)?
The IC50 was 80 nM.

And the IC50 (TE-1)?
The IC50 was over 256 nM.

And the IC50 (JVM-2)?
Its IC50 is over 256 nM.

And the IC50 (OCI-AML2)?
The IC50 was 62.6 nM.

And the IC50 (MEG-01)?
Its IC50 is 126 nM.

What about the IC50 (NKM-1) of the same molecule?
Its IC50 is 79.1 nM.

And the IC50 (CAS-1)?
The IC50 was over 256 nM.

And the IC50 (KS-1)?
Its IC50 is 14 nM.

What about the IC50 (D-263MG) of the same molecule?
Its IC50 is over 256 nM.

What about the IC50 (DU-4475) of the same molecule?
The IC50 was 140 nM.

And the IC50 (LB2241-RCC)?
The IC50 was over 256 nM.

And the IC50 (SH-4)?
The IC50 was over 256 nM.

What about the IC50 (TE-8) of the same molecule?
Its IC50 is 23.8 nM.

What about the IC50 (RS4-11) of the same molecule?
The IC50 was 69.6 nM.

And the IC50 (HuTu80)?
The IC50 was 20.2 nM.

What about the IC50 (BT-474) of the same molecule?
Its IC50 is over 256 nM.

And the IC50 (KARPAS-299)?
Its IC50 is 29.2 nM.

What about the IC50 (LB831-BLC) of the same molecule?
Its IC50 is 32.5 nM.

What about the IC50 (CP66-MEL) of the same molecule?
Its IC50 is over 256 nM.

What about the IC50 (COLO-684) of the same molecule?
Its IC50 is 94.9 nM.

What about the IC50 (TE-6) of the same molecule?
Its IC50 is over 256 nM.

And the IC50 (NMC-G1)?
The IC50 was 32.3 nM.

What about the IC50 (NCI-H1304) of the same molecule?
Its IC50 is 104 nM.

What about the IC50 (no-11) of the same molecule?
The IC50 was 29.3 nM.

What about the IC50 (GI-ME-N) of the same molecule?
The IC50 was 105 nM.

What about the IC50 (TGBC24TKB) of the same molecule?
Its IC50 is over 256 nM.

What about the IC50 (MHH-PREB-1) of the same molecule?
The IC50 was 58.4 nM.

And the IC50 (NTERA-2-cl-D1)?
Its IC50 is 50.8 nM.

And the IC50 (NOS-1)?
The IC50 was 19.6 nM.

And the IC50 (MOLT-4)?
Its IC50 is over 256 nM.

What about the IC50 (MZ7-mel) of the same molecule?
The IC50 was over 256 nM.

And the IC50 (SK-N-DZ)?
Its IC50 is over 256 nM.

What about the IC50 (EM-2) of the same molecule?
Its IC50 is 176 nM.
